Experimental data published in ChEMBL document CHEMBL1147193, “New 5-substituted thiazolo[3,2-b][1,2,4]triazol-6-ones: synthesis and anticancer evaluation” (2007).

How the values were obtained:
Assay type in all cases: functional
ACHN = test: Growth inhibition of human ACHN cells after 48 hrs by SRB protein assay
SK-MEL-28 = test: Growth inhibition of human SK-MEL-28 cells after 48 hrs by SRB protein assay; conditions: SK-MEL-28, 48 h
M14 = test: Growth inhibition of human M14 cells after 48 hrs by SRB protein assay; conditions: M14, 48 h
NCI-H522 = test: Growth inhibition of human NCI-H522 cells after 48 hrs by SRB protein assay; conditions: NCI-H522, 48 h
NCI-H460 [1] = test: Growth inhibition of human NCI-H460 cells after 48 hrs by SRB protein assay; conditions: NCI-H460, 48 h
UACC-62 = test: Growth inhibition of human UACC62 cells after 48 hrs by SRB protein assay; conditions: UACC-62, 48 h
HCT-116 = test: Growth inhibition of human HCT116 cells after 48 hrs by SRB protein assay; conditions: HCT-116, 48 h
HCT-15 = test: Growth inhibition of human HCT15 cells after 48 hrs by SRB protein assay; conditions: HCT-15, 48 h
SK-MEL-5 = test: Growth inhibition of human SK-MEL-5 cells after 48 hrs by SRB protein assay; conditions: SK-MEL-5, 48 h
LOX IMVI = test: Growth inhibition of human LOX IMVI cells after 48 hrs by SRB protein assay
786-0 = test: Growth inhibition of human 786-0 cells after 48 hrs by SRB protein assay; conditions: 786-0, 48 h
IGROV-1 = test: Growth inhibition of human IGROV1 cells after 48 hrs by SRB protein assay; conditions: IGROV-1, 48 h
RPMI-8226 = test: Growth inhibition of human RPMI8226 cells after 48 hrs by SRB protein assay; conditions: RPMI-8226, 48 h
NCI/ADR-RES = test: Growth inhibition of human NCI/ADR-RES cells after 48 hrs by SRB protein assay
UACC-257 = test: Growth inhibition of human UACC257 cells after 48 hrs by SRB protein assay; conditions: UACC-257, 48 h
OVCAR-4 = test: Growth inhibition of human OVCAR4 cells after 48 hrs by SRB protein assay; conditions: OVCAR-4, 48 h
Hs-578T = test: Growth inhibition of human HS578T cells after 48 hrs by SRB protein assay
RXF 393 = test: Growth inhibition of human RXF393 cells after 48 hrs by SRB protein assay; conditions: RXF 393, 48 h
SK-OV-3 = test: Growth inhibition of human SK-OV-3 cells after 48 hrs by SRB protein assay; conditions: SK-OV-3, 48 h
[2] = Growth inhibition of human MALME 3M cells after 48 hrs by SRB protein assay
SW-620 = test: Growth inhibition of human SW620 cells after 48 hrs by SRB protein assay; conditions: SW-620, 48 h
SK-MEL-2 = test: Growth inhibition of human SK-MEL-2 cells after 48 hrs by SRB protein assay; conditions: SK-MEL-2, 48 h
TK-10 = test: Growth inhibition of human TK10 cells after 48 hrs by SRB protein assay; conditions: TK-10, 48 h
CCRF-CEM = test: Growth inhibition of human CCRF-CEM cells after 48 hrs by SRB protein assay
HOP-62 = test: Growth inhibition of human HOP62 cells after 48 hrs by SRB protein assay; conditions: HOP-62, 48 h
OVCAR-8 = test: Growth inhibition of human OVCAR8 cells after 48 hrs by SRB protein assay; conditions: OVCAR-8, 48 h
HOP-92 = test: Growth inhibition of human HOP92 cells after 48 hrs by SRB protein assay; conditions: HOP-92, 48 h
SF-295 = test: Growth inhibition of human SF295 cells after 48 hrs by SRB protein assay; conditions: SF-295, 48 h
SF-268 = test: Anticancer activity against human SF268 cells assessed as growth of cells at 100 uM relative to untreated cells
PC-3 = test: Growth inhibition of human PC3 cells after 48 hrs by SRB protein assay; conditions: PC-3, 48 h
NCI-H460 [3] = test: Anticancer activity against human NCI-H460 cells assessed as growth of cells at 100 uM relative to untreated cells
SN12C = test: Growth inhibition of human SN12C cells after 48 hrs by SRB protein assay
UO-31 = test: Growth inhibition of human UO31 cells after 48 hrs by SRB protein assay; conditions: UO-31, 48 h
MCF7 = test: Growth inhibition of human MCF7 cells after 48 hrs by SRB protein assay; conditions: MCF7, 48 h
A549 = test: Growth inhibition of human A549/ATCC cells after 48 hrs by SRB protein assay; conditions: A549, 48 h

In the case of `O=C(CC1Sc2ncnn2C1=O)Nc1ccccc1` (stereo not drawn), the GI50 (ACHN) is reported as 21.9 µM, the TGI (ACHN; read-out: Log TGI (converted)) is reported as 41.7 µM and the GI50 (SK-MEL-28) is reported as > 100 µM. For the same compound, the TGI (SK-MEL-28; read-out: Log TGI (converted)) was > 100 µM, the GI50 (M14) was 21.9 µM and the TGI (M14; read-out: Log TGI (converted)) was 45.7 µM. The GI50 (NCI-H522) was 21.9 µM, the TGI (NCI-H522; read-out: Log TGI (converted)) was 42.7 µM and the GI50 (NCI-H460 [1]) was 35.5 µM. The TGI (NCI-H460 [1]; read-out: Log TGI (converted)) was > 100 µM, the GI50 (UACC-62) was > 100 µM and the TGI (UACC-62; read-out: Log TGI (converted)) was > 100 µM. For the same compound, the GI50 (HCT-116) was 32.4 µM, the TGI (HCT-116; read-out: Log TGI (converted)) was > 100 µM and the GI50 (HCT-15) was 33.1 µM. The TGI (HCT-15; read-out: Log TGI (converted)) was > 100 µM, the GI50 (SK-MEL-5) was 22.9 µM and the TGI (SK-MEL-5; read-out: Log TGI (converted)) was 47.9 µM. The GI50 (LOX IMVI) was 25.7 µM, the TGI (LOX IMVI; read-out: Log TGI (converted)) was 53.7 µM and the GI50 (786-0) was 19.5 µM. The TGI (786-0; read-out: Log TGI (converted)) was 36.3 µM, the GI50 (IGROV-1) was 25.7 µM and the TGI (IGROV-1; read-out: Log TGI (converted)) was 66.1 µM. For the same compound, the GI50 (RPMI-8226) was 20.9 µM, the TGI (RPMI-8226; read-out: Log TGI (converted)) was 64.6 µM and the GI50 (NCI/ADR-RES) was 63.1 µM. For the same compound, the TGI (NCI/ADR-RES; read-out: Log TGI (converted)) was > 100 µM, the GI50 (UACC-257) was 40.7 µM and the TGI (UACC-257; read-out: Log TGI (converted)) was > 100 µM. For the same compound, the GI50 (OVCAR-4) was > 100 µM, the TGI (OVCAR-4; read-out: Log TGI (converted)) was > 100 µM and the GI50 (Hs-578T) was 12.3 µM. For the same compound, the TGI (Hs-578T; read-out: Log TGI (converted)) was 45.7 µM, the GI50 (RXF 393) was 18.6 µM and the TGI (RXF 393; read-out: Log TGI (converted)) was 42.7 µM. For the same compound, the GI50 (SK-OV-3) was > 100 µM, the TGI (SK-OV-3; read-out: Log TGI (converted)) was > 100 µM and the GI50 [2] was 19.1 µM. For the same compound, the TGI ([2]; read-out: Log TGI (converted)) was 44.7 µM, the GI50 (SW-620) was 3.24 µM and the TGI (SW-620; read-out: Log TGI (converted)) was 44.7 µM. The GI50 (SK-MEL-2) was 21.9 µM, the TGI (SK-MEL-2; read-out: Log TGI (converted)) was 53.7 µM and the GI50 (TK-10) was 19.1 µM. For the same compound, the TGI (TK-10; read-out: Log TGI (converted)) was 39.8 µM, the GI50 (CCRF-CEM) was 33.9 µM and the TGI (CCRF-CEM; read-out: Log TGI (converted)) was 100 µM. For the same compound, the GI50 (HOP-62) was > 100 µM, the TGI (HOP-62; read-out: Log TGI (converted)) was > 100 µM and the GI50 (OVCAR-8) was 25.7 µM. For the same compound, the TGI (OVCAR-8; read-out: Log TGI (converted)) was 60.3 µM, the GI50 (HOP-92) was 25.1 µM and the TGI (HOP-92; read-out: Log TGI (converted)) was 66.1 µM. The GI50 (SF-295) was > 100 µM, the TGI (SF-295; read-out: Log TGI (converted)) was > 100 µM and the Activity (SF-268) was 110%. The GI50 (PC-3) was 72.4 µM, the TGI (PC-3; read-out: Log TGI (converted)) was > 100 µM and the Activity (NCI-H460 [3]) was 0%. For the same compound, the GI50 (SN12C) was 27.5 µM, the TGI (SN12C; read-out: Log TGI (converted)) was 67.6 µM and the GI50 (UO-31) was 25.1 µM. For the same compound, the TGI (UO-31; read-out: Log TGI (converted)) was 57.5 µM, the GI50 (MCF7) was 36.3 µM and the TGI (MCF7; read-out: Log TGI (converted)) was > 100 µM. The GI50 (A549) was > 100 µM and the TGI (A549; read-out: Log TGI (converted)) was > 100 µM.
